Test results as given in US12298319B2, “Method for measuring alpha value of muscarinic M1 receptor positive allosteric modulators” (Takeda Pharmaceutical Company Limited, priority 2017, dated 2025).
Read-outs that look alike come from different tables or passages of the source.

Experiments:
M3R = M3R (Homo sapiens, UniProt P20309); assay: Ca2+ flux PAM activity against other muscarinic receptor subtypes, M3R; assay type: cell-based; details: in the presence of EC20 ACh; read-out: PAM activity against other muscarinic receptor subtypes M3R pIP
isolated mouse ileum = assay: In vitro Magnus assay, EFS-induced ileum contraction; details: for Ileum contraction at 1 μM (% of cont.) Mean: isolated mouse ileum with EFS
Description: After overnight fasting, mice were sacrificed by decapitation. The ileum was quickly dissected out and suspended in ice-cold Krebs solution with the following composition (in mM): NaCl, 120.7; KCl, 5.9; CaCl2, 2.5; MgCl2, 1.2; […], 15.5; NaH2PO4, 1.2; and glucose, 11.5. Longitudinal segments of ileum (10-15 mm long) were detached of mesentery and adipose tissue, and mounted in organ baths containing 10 mL of Krebs solution aerated with 95% O2/5% CO2. Bath temperature was maintained at 37° C. The isolated ileum was given a passive load of 0.5 g. The contractile response of the isolated ileum was continuously recorded with isometric transducer (MLT050/A, ADInstruments, New South Wales, Australia) and recorder (PowerLab 8/30 ML870 and Octal Bridge Amp ML228, ADInstruments).
Platinum electrodes (3-20 mm apart, Iwashiya Kishimoto Medical Instruments, Kyoto, Japan) were mounted on both sides of the isolated ileum. The electrodes were connected to an electric stimulator (SEG-3104, Nihon Kohden, Tokyo, Japan) and an amplifier (SIG-3140, Nihon Kohden) for EFS with square wave pulses (20 V over the electrodes, 50 ms duration, and 20 Hz frequency); pulse trains were lasting for 10 s with 20 s pause.
The EFS produced sustained tonic contraction, followed by relaxation. The contraction was measured as the maximum strength from the baseline. The effects of experimental substances on the maximum contraction were measured. At the beginning of each experiment, a series of control EFS cycles was tested for more than 1 h to observe stability of contractile response. The ileum with a steady contractile response elicited by control EFS during the 1 h was used to investigate the effect of test compounds.
After responses to control EFS reached a steady-state, the compounds were added to the Magnus bath cumulatively, without washing between the subsequent doses. The interval between two adjacent doses was always at least 5 min, thus the isolated preparations receive at least 10 pulses in each dose of the compounds. After cumulating all doses of compounds, the bath was washed three times, and the ilea were allowed to rest for further 30 min. The effect of each concentration of the compounds on ileum contraction induced by EFS was calculated from the average value of 10 responses of the maximum strength. Then the ileum contractile response was expressed as a ratio (%) of the mean maximum contraction to that obtained with the pre-treated DMSO (solvent) to obtain concentration-response curve. Due to very small size of relaxations, the effects of the compounds on them was not be analyzed.

human M1Rs = target: T1, human M1Rs (Homo sapiens, UniProt P11229); assay: Ca2+ flux assay in CHO-K1 cells stably expressing human M1R (FLIPR), agonist and PAM mode, operational model fit; assay type: cell-based; details: for log β Mean: allosteric effect of PAM on signaling efficacy of ACh; for log β Mean / Log TB Mean: operational model; for EC50: mean of three independent experiments; for Log TB Mean: intrinsic agonistic efficacy
T1 sequence (P11229 1-460): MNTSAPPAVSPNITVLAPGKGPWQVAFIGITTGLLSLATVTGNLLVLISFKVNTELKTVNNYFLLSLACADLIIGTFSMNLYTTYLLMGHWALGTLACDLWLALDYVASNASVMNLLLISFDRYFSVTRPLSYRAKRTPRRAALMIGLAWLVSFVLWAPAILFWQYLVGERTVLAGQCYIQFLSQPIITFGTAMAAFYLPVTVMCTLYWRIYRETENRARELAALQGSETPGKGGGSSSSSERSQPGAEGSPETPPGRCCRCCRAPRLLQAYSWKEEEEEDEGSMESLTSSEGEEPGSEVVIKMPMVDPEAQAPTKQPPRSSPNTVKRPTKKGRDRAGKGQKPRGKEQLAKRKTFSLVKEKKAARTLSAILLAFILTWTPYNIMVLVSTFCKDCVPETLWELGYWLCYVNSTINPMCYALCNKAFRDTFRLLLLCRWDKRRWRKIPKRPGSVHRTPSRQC
Description: Chinese hamster ovary (CHO-K1) cells stably expressing human M1Rs (hM1R-CHO) were plated in black-walled clear-bottomed 384-well plates (5,000 cells/well) and cultured overnight at 37° C. in the presence of 5% CO2 in Ham's F-12 medium supplemented with 10% FBS and 100 U/mL penicillin-streptomycin. The following day, the medium was removed and incubated with assay buffer (Hank's balanced salt solution with 20 mM HEPES, 0.1% fatty acid free BSA) containing 2.5 μg/mL Fluo-4 AM and 1.25 mM probenecid for 30 min at 37° C. in the presence of 5% CO2. After 30 min incubation at room temperature, cells were stimulated with compounds. In this experiment, ACh and each PAM were added to the cells simultaneously. Calcium flux was measured using a fluorescence imaging plate reader (FLIPR) tetra system (Molecular Devices, Sunnyvale, CA).
[formula] the pharmacological effect and Emax denotes the maximum possible effect; [A] and [B] are the concentrations of ACh and PAM, respectively; KA and KB denote the equilibrium dissociation constants of ACh and PAM, respectively; τA and τB represent the operational measures of ACh and PAM efficacy, respectively; a is the binding cooperativity between ACh and PAM (activity to enhance ACh affinity to M1R); β is the magnitude of the allosteric effect of PAM on the signaling efficacy of ACh; n denotes the slope factor. For the analysis of functional data, the equilibrium dissociation constant of each PAM and the cooperativity between ACh and each PAM were fixed to those determined from the binding experiments.
EC50, eliciting 50% of the maximal response of an endogenous ligand, ACh, reflects the agonistic activity for M1R under conditions without ACh. […] Results of the in vitro functional parameters for M1R represent the mean and S.E.M. of three independent experiments. N/A stands for “not available”. PAM means positive allosteric modulator (Table 1).

mice = assay: Assessment of diarrhea in mice; assay type: in vivo, mouse; details: for diarrhea induction: mice
Description: FIG. 1 depicts diarrhea induction by Compound C treatment in WT and M1R KO mice (hereinafter sometimes to be indicated as “MIKO mouse” in the present DESCRIPTION) (Example 11). […] The maximum score during the observation was adopted.
On the day of the experiment, mice were randomly divided into four groups (n=6-9). […] Each mouse was treated with either vehicle (10 or 20 mL/kg) or a single dose of each compound, including Compound A (3, 10 or 30 mg/kg p.o.), Compound B (10, 30, 100, 300 or 1,000 mg/kg p.o.) or Compound C (10 mg/kg p.o.). The animals were monitored, and scored the severity of diarrhea at 0.5, 1, 2, 4 and 6 h after administration. […] The highest score during the observation was adopted.

[1] = inflection point in the presence of EC20 ACh, read-out: M1PAM activity pIP Mean (converted)
[2] = without ACh, read-out: M1 agonist activity pEC50 Mean (converted)

M3R, sequence (P20309 whole entry): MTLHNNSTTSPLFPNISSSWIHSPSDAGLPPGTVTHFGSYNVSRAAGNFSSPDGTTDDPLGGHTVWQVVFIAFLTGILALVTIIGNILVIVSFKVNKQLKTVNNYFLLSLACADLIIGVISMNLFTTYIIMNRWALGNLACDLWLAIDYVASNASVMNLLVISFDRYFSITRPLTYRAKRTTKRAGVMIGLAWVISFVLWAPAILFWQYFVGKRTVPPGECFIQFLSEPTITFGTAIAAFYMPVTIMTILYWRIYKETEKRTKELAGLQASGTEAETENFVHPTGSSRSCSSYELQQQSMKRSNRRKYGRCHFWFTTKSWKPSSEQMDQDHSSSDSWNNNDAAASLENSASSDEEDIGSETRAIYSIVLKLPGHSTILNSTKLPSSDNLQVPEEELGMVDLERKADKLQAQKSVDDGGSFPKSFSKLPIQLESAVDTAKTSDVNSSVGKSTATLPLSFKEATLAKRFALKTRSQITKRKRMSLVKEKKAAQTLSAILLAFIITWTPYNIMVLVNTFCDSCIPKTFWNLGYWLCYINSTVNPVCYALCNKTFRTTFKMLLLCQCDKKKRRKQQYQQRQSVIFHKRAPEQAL

| SMILES | EC50 (M3R) [nM] | Ileum contraction at 1 μM (% of cont.) Mean (isolated mouse ileum) | effect on EFS-induced ileum contraction (isolated mouse ileum; up to 1 μM) | log β Mean (human M1Rs) | EC50 (human M1Rs; [1]) [nM] | Log TB Mean (human M1Rs) | EC50 (human M1Rs; [2]) [nM] | diarrhea induction (mice; up to 1000 mg/kg p.o.) | augmentation of EFS-induced ileum contraction (isolated mouse ileum; 0.1 nM-1 μM) | augmentation of EFS-induced ileum contraction with telenzepine (isolated mouse ileum; with 1 nM of telenzepine) | diarrhea induction (mice; 10 and 30 mg/kg p.o.) | diarrhea induction in M1R KO mice (mice; 10 mg/kg p.o., M1R KO mice) | diarrhea induction in WT mice (mice; 10 mg/kg p.o., WT mice) |
| --- | --- | --- | --- | --- | --- | --- | --- | --- | --- | --- | --- | --- | --- |
| Cn1cc(-c2ccc(CN3Cc4cccc(Oc5c(F)cccc5C#N)c4C3=O)cc2)cn1 [Compound B, 3-fluoro-2-((2-(4-(1-methyl-1H-pyrazol-4-yl)benzyl)-3-oxo-2,3-dihydro-1H-isoindol-4-yl)oxy)benzonitrile] | > 10000 | 97 % of cont. | no effect | 0.58 | 40.7 | −0.10 | 676 | did not induce severe diarrhea | – | – | – | – | – |
| Cn1cc(-c2ccc(CN3Cc4cccc(OCCN5CCCCC5)c4C3=O)cc2)cn1 [Compound F, 2-(4-(1-methyl-1H-pyrazol-4-yl)benzyl)-7-(2-(piperidin-1-yl)ethoxy)isoindolin-1-one] | > 10000 | 102 % of cont. | – | 0.87 | 79.4 | 0.15 | 2090 | – | – | – | – | – | – |
| Cn1ccc(-c2ccc(CN3Cc4cccc(O[C@H]5CCCC[C@@H]5O)c4C3=O)cc2)n1 [Compound A, 7-(((1S,2S)-2-hydroxycyclohexyl)oxy)-2-(4-(1-methyl-1H-pyrazol-3-yl)benzyl)isoindolin-1-one] | > 10000 | 116 % of cont. | – | 0.13 | 10.2 | 2.06 | 72.4 | – | concentration-dependent augmentation | suppressed | caused severe diarrhea | – | – |
| O=c1c2cn(Cc3ccc(-n4cccn4)cc3)c3ccccc3c-2nn1-c1ccccc1F [Compound E, 2-(2-fluorophenyl)-5-(4-(1H-pyrazol-1-yl)benzyl)-2,5-dihydro-3H-pyrazolo[4,3-c]quinolin-3-one, reference compound] | > 10000 | 106 % of cont. | – | −0.23 | 8.51 | 0.65 | 219 | – | – | – | – | – | – |
| Cn1cc(-c2ccc(CN3Cc4cccc(-c5ccn[nH]5)c4C3=O)cc2)cn1 [Compound G, 2-(4-(1-methyl-1H-pyrazol-4-yl)benzyl)-7-(1H-pyrazol-5-yl)isoindolin-1-one] | > 10000 | 93 % of cont. | – | 0.85 | 275 | – | > 10000 | – | – | – | – | – | – |
| Cn1cc(-c2ccc(Cc3cc4c(=O)n([C@H]5CCCC[C@@H]5O)cnc4c4ccccc34)cn2)cn1 [Compound C, 3-((1S,2S)-2-hydroxycyclohexyl)-6-((6-(1-methyl-1H-pyrazol-4-yl)pyridin-3-yl)methyl)benzo[h]quinazoline-4(3H)-one, reference compound] | > 10000 | 104 % of cont. | – | −0.39 | 2.09 | 1.49 | 1.62 | – | – | – | – | not in M1R KO mice | induced diarrhea |
